# According to patent US20260166039A1 (SCHRÖDINGER, INC., priority 2022, published 2026):
# Molecular target: T1, Wee1 kinase domain (Homo sapiens, UniProt P30291)
# T1 construct: Wee1 kinase domain was purchased from Carna (catalog #05-177); purchased Carna 05-177
# Experiment: Wee1 Kinase Biochemical Assay (ADP-Glo)
# Conditions: Wee1 kinase domain, 15 uM ATP, ADP-Glo
# Method: Wee1 Kinase Biochemical Assay Protocol
# Wee1 kinase domain was purchased from Carna (catalog #05-177). Wee1 kinase activity was determined with Poly(Lys,Tyr 4:1) hydrobromide as a substrate (Sigma-Aldrich) and by measuring ADP production using the ADP-Glo Kinase Assay kit (Promega) following the manufacturer's instructions. The kinase reaction was performed using the following conditions:
# Buffer: 40 mM Tris-HCl, 20 mM magnesium chloride, supplemented with 0.1 mg/mL bovine serum albumin and 2 mM DTT. The final reaction mix contained 1 nM Wee1 enzyme, 15 uM ATP, and 2 ng/mL Poly(Lys,Tyr 4:1) hydrobromide substrate. The reaction time was 4 hours at 25° C.
# The ADP-Glo signal was measured using the Envision plate reader and the percentage inhibition of kinase activity calculated for each inhibitor tested. Percent inhibition of Wee1 kinase activity was calculated based on the following formula.
# [formula] • SSample: the signal of compounds • SHigh Ctrl: the signal of high control (DMSO) • SLow Ctrl: the signal of low control (positive control Wee1 inhibitor at saturating concentration)
# T1 sequence (P30291 299-569 limits assumed): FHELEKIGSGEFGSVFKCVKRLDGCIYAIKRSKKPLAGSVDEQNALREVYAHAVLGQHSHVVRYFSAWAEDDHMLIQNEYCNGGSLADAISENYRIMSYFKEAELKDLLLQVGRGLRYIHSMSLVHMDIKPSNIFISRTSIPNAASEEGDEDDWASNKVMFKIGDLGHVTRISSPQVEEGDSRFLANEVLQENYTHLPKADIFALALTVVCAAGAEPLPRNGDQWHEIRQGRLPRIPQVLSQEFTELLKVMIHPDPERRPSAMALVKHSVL
row,Compound,IC50 [nM]
1,"CNCc1cccc(N2c3nc(Nc4ccc(N5CCCCC5)cc4)ncc3[C@]3(C)COC(C)(C)C[C@H]23)n1 (single isomer, unassigned) [Example 1]",10 to 100
2,"CN1CCN(c2ccc(Nc3ncc4c(n3)N(c3cccc(C(C)(C)O)n3)[C@H]3CC(C)(C)OC[C@@]43C)cc2)CC1 (single isomer, unassigned) [Example 3]",100 to 1000
3,"CNCc1cccc(N2c3nc(Nc4ccc(N5CCOCC5)cc4)ncc3[C@]3(C)COC(C)(C)C[C@H]23)n1 (single isomer, unassigned) [Example 6]",10 to 100
4,"Cc1cc(Nc2ncc3c(n2)N(c2cccc(C(C)(C)O)n2)[C@H]2CC(C)(C)OC[C@@]32C)ccc1C1CCN(C)CC1 (single isomer, unassigned) [Example 7]",10 to 100
5,"Cc1cc(Nc2ncc3c(n2)N(c2cccc(C(C)(C)O)n2)[C@H]2CC(C)(C)OC[C@@]32C)ccc1N1CCN(C)CC1 (single isomer, unassigned) [Example 10]",10 to 100
6,"CN1CCC(n2cc(Nc3ncc4c(n3)N(c3cccc(C(C)(C)O)n3)[C@H]3CC(C)(C)OC[C@@]43C)cn2)CC1 (single isomer, unassigned) [Example 12]",100 to 1000
7,"CNCc1cccc(N2c3nc(Nc4ccc(N5CCOCC5)c(Cl)c4)ncc3[C@]3(C)COC(C)(C)C[C@H]23)n1 (single isomer, unassigned) [Example 13]",10 to 100
8,"CNCc1cccc(N2c3nc(Nc4ccc(N5CCC(F)(F)CC5)cc4)ncc3[C@]3(C)COC(C)(C)C[C@H]23)n1 (single isomer, unassigned) [Example 15]",10 to 100
9,"CNCc1cccc(N2c3nc(Nc4ccc(N5CCCOCC5)cc4)ncc3[C@]3(C)COC(C)(C)C[C@H]23)n1 (single isomer, unassigned) [Example 17]",100 to 1000
10,"CNCc1cccc(N2c3nc(Nc4ccc(N5CCC(F)(F)C5)cc4)ncc3[C@]3(C)COC(C)(C)C[C@H]23)n1 (single isomer, unassigned) [Example 21]",100 to 1000
11,"CNCc1cccc(N2c3nc(Nc4ccc(C(=O)N5CCOCC5)cc4)ncc3[C@]3(C)COC(C)(C)C[C@H]23)n1 (single isomer, unassigned) [Example 23]",100 to 1000
12,"CNCc1cccc(N2c3nc(Nc4ccc(N5CCOCC5)c(C)c4)ncc3[C@]3(C)COC(C)(C)C[C@H]23)n1 (single isomer, unassigned) [Example 25]",10 to 100
13,"CNCc1cccc(N2c3nc(Nc4ccc(N5C(=O)CC[C@@H]5C)cc4)ncc3[C@]3(C)COC(C)(C)C[C@H]23)n1 (single isomer, unassigned) [Example 27]",≥ 1000
14,"CNCc1cccc(N2c3nc(Nc4ccc(N5C(=O)CC[C@@H]5C)cc4)ncc3[C@@]3(C)COC(C)(C)C[C@@H]23)n1 (single isomer, unassigned) [Example 28]",< 10
15,"CNCc1cccc(N2c3nc(Nc4ccc(N5C(=O)CC[C@H]5C)cc4)ncc3[C@]3(C)COC(C)(C)C[C@H]23)n1 (single isomer, unassigned) [Example 29]",10 to 100
16,"CNCc1cccc(N2c3nc(Nc4ccc5c(c4)C(=O)N(C)C5)ncc3[C@]3(C)COC(C)(C)C[C@H]23)n1 (single isomer, unassigned) [Example 31]",100 to 1000
17,"CNCc1cccc(N2c3nc(Nc4ccc(S(C)(=O)=O)cc4)ncc3[C@]3(C)COC(C)(C)C[C@H]23)n1 (single isomer, unassigned) [Example 33]",100 to 1000
18,"CNCc1cccc(N2c3nc(Nc4ccc(C5CCOCC5)cc4)ncc3[C@]3(C)COC(C)(C)C[C@H]23)n1 (single isomer, unassigned) [Example 36]",10 to 100
19,"CNCc1cccc(N2c3nc(Nc4ccc([C@@H]5CCOC5)cc4)ncc3[C@]3(C)COC(C)(C)C[C@H]23)n1 (single isomer, unassigned) [Example 37]",100 to 1000
20,"CNCc1cccc(N2c3nc(Nc4ccc([C@H]5CCOC5)cc4)ncc3[C@]3(C)COC(C)(C)C[C@H]23)n1 (single isomer, unassigned) [Example 39]",100 to 1000
21,"CNCc1cccc(N2c3nc(Nc4ccc(N5C[C@H]6C[C@@H]5CO6)cc4)ncc3[C@]3(C)COC(C)(C)C[C@H]23)n1 (single isomer, unassigned) [Example 43]",10 to 100
22,"CNCc1cccc(N2c3nc(Nc4ccccc4)ncc3[C@]3(C)COC(C)(C)C[C@H]23)n1 (single isomer, unassigned) [Example 46]",10 to 100
23,"CNCc1cccc(N2c3nc(Nc4cnn(C(C)(C)C)c4)ncc3[C@]3(C)COC(C)(C)C[C@H]23)n1 (single isomer, unassigned) [Example 47]",100 to 1000
24,"CNCc1cccc(N2c3nc(Nc4ccc(N5CCS(=N)(=O)CC5)cc4)ncc3[C@]3(C)COC(C)(C)C[C@H]23)n1 (single isomer, unassigned) [Example 50]",10 to 100
25,"CNCc1cccc(N2c3nc(Nc4ccc([C@@H]5CCC(=O)N5C)cc4)ncc3[C@]3(C)COC(C)(C)C[C@H]23)n1 (single isomer, unassigned) [Example 51]",≥ 1000
26,"CNCc1cccc(N2c3nc(Nc4ccc([C@H]5CCC(=O)N5C)cc4)ncc3[C@]3(C)COC(C)(C)C[C@H]23)n1 (single isomer, unassigned) [Example 53]",≥ 1000
27,"CNCc1cccc(N2c3nc(Nc4ccc(C5CCOCC5)nc4)ncc3[C@]3(C)COC(C)(C)C[C@H]23)n1 (single isomer, unassigned) [Example 55]",≥ 1000
28,"CNCc1cccc(N2c3nc(Nc4ccc([C@@H]5CCCO5)cc4)ncc3C3(C)COC(C)(C)C[C@H]23)n1 (single isomer, unassigned) [Example 57]",10 to 100
29,"CNCc1cccc(N2c3nc(Nc4ccc([C@H]5CCCO5)cc4)ncc3[C@]3(C)COC(C)(C)C[C@H]23)n1 (single isomer, unassigned) [Example 58]",≥ 1000

# Other lines, results leading:
row,IC50 [nM],Compound
1,< 10,"CNCc1cccc(N2c3nc(Nc4ccc([C@@H]5CCCO5)cc4)ncc3[C@@]3(C)COC(C)(C)C[C@@H]23)n1 (single isomer, unassigned) [Example 59]"
2,< 10,"CNCc1cccc(N2c3nc(Nc4ccc([C@H]5CCCO5)cc4)ncc3[C@@]3(C)COC(C)(C)C[C@@H]23)n1 (single isomer, unassigned) [Example 60]"
3,10 to 100,"CNCc1cccc(N2c3nc(Nc4ccc([C@H]5CNC(=O)C5)cc4)ncc3[C@]3(C)COC(C)(C)C[C@H]23)n1 (single isomer, unassigned) [Example 62]"
4,10 to 100,"CNCc1cccc(N2c3nc(Nc4ccc([C@@H]5CNC(=O)C5)cc4)ncc3[C@]3(C)COC(C)(C)C[C@H]23)n1 (single isomer, unassigned) [Example 64]"
5,100 to 1000,"CN=S1(=O)CCN(c2ccc(Nc3ncc4c(n3)N(c3cccc(CNC)n3)[C@H]3CC(C)(C)OC[C@@]43C)cc2)CC1 (single isomer, unassigned) [Example 66]"
6,100 to 1000,"CNCc1cccc(N2c3nc(Nc4ccc([C@H]5CC(=O)N(C)C5)cc4)ncc3[C@]3(C)COC(C)(C)C[C@H]23)n1 (single isomer, unassigned) [Example 67]"
7,10 to 100,"CNCc1cccc(N2c3nc(Nc4ccc([C@@H]5CC(=O)N(C)C5)cc4)ncc3[C@]3(C)COC(C)(C)C[C@H]23)n1 (single isomer, unassigned) [Example 70]"
8,100 to 1000,"CNCc1cccc(N2c3nc(Nc4ccc(C5CCN(C)CC5)c(C)c4)ncc3[C@]3(C)COC(C)(C)C[C@H]23)n1 (single isomer, unassigned) [Example 71]"
9,10 to 100,"CNCc1cccc(N2c3nc(Nc4ccc(C(C)(C)C)cc4)ncc3[C@]3(C)COC(C)(C)C[C@H]23)n1 (single isomer, unassigned) [Example 74]"
10,≥ 1000,"CNCc1cccc(N2c3nc(Nc4ccc(C(C)(C)C(=O)N(C)C)cc4)ncc3[C@]3(C)COC(C)(C)C[C@H]23)n1 (single isomer, unassigned) [Example 75]"
11,100 to 1000,"CNCc1cccc(N2c3nc(Nc4ccc([C@]5(C)CCN(C)C5=O)cc4)ncc3[C@]3(C)COC(C)(C)C[C@H]23)n1 (single isomer, unassigned) [Example 77]"
12,100 to 1000,"CNCc1cccc(N2c3nc(Nc4ccc([C@@]5(C)CCN(C)C5=O)cc4)ncc3[C@]3(C)COC(C)(C)C[C@H]23)n1 (single isomer, unassigned) [Example 79]"
13,≥ 1000,"CNCc1cccc(N2c3nc(Nc4ccc(C5(C)COC5)cc4)ncc3[C@]3(C)COC(C)(C)C[C@H]23)n1 (single isomer, unassigned) [Example 83]"
14,100 to 1000,"CNCc1cccc(N2c3nc(Nc4ccc(N5C6CCC5COC6)c(C)c4)ncc3[C@]3(C)COC(C)(C)C[C@H]23)n1 (single isomer, unassigned) [Example 86]"
15,100 to 1000,"CNCc1cccc(N2c3nc(Nc4ccc5c(c4)C(=O)N(C)CC5(C)C)ncc3[C@]3(C)COC(C)(C)C[C@H]23)n1 (single isomer, unassigned) [Example 91]"
16,10 to 100,"CNCc1cccc(N2c3nc(Nc4ccc(N5CCN(C)CC5)cc4)ncc3[C@]3(C)COC(C)(C)C[C@H]23)n1 (single isomer, unassigned) [Example 93]"
17,≥ 1000,"CNCc1cccc(N2c3nc(Nc4ccc([C@@H]5CCC(=O)N5C)nc4)ncc3[C@]3(C)COC(C)(C)C[C@H]23)n1 (single isomer, unassigned) [Example 95]"
18,100 to 1000,"CNCc1cccc(N2c3nc(Nc4ccc([C@H]5CCC(=O)N5C)nc4)ncc3[C@]3(C)COC(C)(C)C[C@H]23)n1 (single isomer, unassigned) [Example 97]"
